The values below come from patent publication US7763582B2 (University of Medicine and Dentistry Of New Jersey, priority 2006, dated 2010).

The test system of experiment [1] is fractured femora. Description: Mechanical (torsional) testing of fractured femora, BB Wistar rats (Example 1). To be noted: 4 weeks. The experiment is classed as in vivo. The source says: (§1) A closed mid-diaphyseal fracture was created in the right femur using the following modification of the methods described in Bonnarens, F., and Einhorn, T. A., “Production of a standard closed fracture in laboratory animal bone,” J. Orthop. Res., vol. 2, pages 97-101 (1984). Once a medial, parapatellar incision was made, the patella was dislocated laterally and the interchondylar notch of the distal femur was exposed. An entry hole was made with an 18 gauge needle and the femur was reamed. A 16 gauge teflon cannula was then inserted into the intramedullary canal to stabilize the fracture while a closed midshaft fracture was created unilaterally with the use of a three-point bending, Einhorn fracture machine. Once the fracture was created, the cannula was removed and replaced with a 1.2 mm hollow rod in the Sprague-Dawley rats and a 1 mm Kirschner wire in the BB Wistar rat. […] The animals were allowed to ambulate freely immediately post-fracture.
(§2) Fractured and contralateral femora were resected at 4 weeks and cleaned of soft tissue. Femora were cleaned of soft tissue and the intramedullary rod was removed. Samples were wrapped in saline (0.9% NaCl) soaked gauze and stored at −20° C. Prior to testing, all femora were removed from the freezer and allowed to thaw to room temperature for three to four hours. The proximal and distal ends of the fractured and contralateral femora were embedded in Wood's metal. Torsional testing was conducted using a servohydraulics machine (MTS Systems Corp., Eden Prairie, Minn.) with a 20 Nm reaction torque cell (Interface, Scottsdale, Ariz.) and tested to failure at a rate of 2.0 deg/sec.
(§3) The peak torque (T), torsional rigidity (TR), […] (G) and the maximum shear stress ( ) were determined through standard equations modeling each femur as a hollow ellipse. In order to compare the biomechanical parameters between different groups, the data was normalized by dividing each fractured femur value by its corresponding intact, contralateral femur value.

The subject of experiment [2] is fractured femora. In words: Mechanical (torsional) testing of fractured femora, Sprague-Dawley rats. In kind it is in vivo. To be noted: 4 weeks.
Description: as §1, §2, §3

In experiment [3] the test system is fractured femora. In words: Qualitative histology of early fracture callus at day 4. The experiment is classed as in vivo, BB Wistar rats.
Description: as §1
The fractured femora were resected at day 4, decalcified, embedded and sectioned using standard histological techniques. To identify cartilage formation, sections were stained with Accustain™ Trichrome Staining kit (Masson, Sigma Diagnostics, St. Louis, Mo.) for histologic observation. The staining procedure consisted of fixing the sections in Accustain™ Bouins solution (Sigma Diagnostics, St. Louis, Mo.) overnight. […]

Where [4] appears, read: fractured femora, versus untreated, FIG. 4.
[5] abbreviates: normalized to intact contralateral femora.
Where [6] appears, read: fractured femora, versus untreated, FIG. 3.

With ultralente insulin, in experiment [1] (setting [4]), the maximum shear stress result is reported as “significantly increased”, the sheer modulus entry is “trending towards significance”, the torque to failure entry was “significantly increased” and the torsional rigidity result was “trending towards significance”. In addition, in experiment [1] (versus untreated group, FIG. 4), the “mechanical properties of the fractured femora” value is listed as “improved”. Besides, in experiment [1] (setting [5]), the percent sheer modulus result is recorded as “trending towards significance” and the percent torsional rigidity entry was “trending towards significance”. In experiment [2] (setting [6]), the maximum shear stress result is “significantly increased”, the sheer modulus result is listed as “significantly increased”, the torque to failure entry is reported as “significantly increased” and the torsional rigidity result is “significantly increased”. Further, in experiment [2] (versus untreated group, FIG. 3), the “mechanical properties of the fractured femora” value was “improved”. For the same substance, in experiment [2] (setting [5]), the “percent maximum shear stress” value is recorded as “trending towards significance”, the percent sheer modulus result is recorded as “significantly increased”, the “percent torque to failure” value is given as “trending towards significance” and the percent torsional rigidity result was “significantly increased”. Moreover, in experiment [3] (not present in untreated group), the “osteoid matrix in callus” value is listed as “present”. Moreover, the “chondrocytes in fracture callus (histology)” value in experiment [3] (untreated group showed only proliferating chondrocytes, FIG. 2) is “presence of proliferating and hypertrophic chondrocytes”.
